Experiment: Topical application of NSAID with hyaluronic acid to patients: side effects and pain relief
Format: in vivo, human
Settings: for relief of pain: patients using combination with hyaluronic acid (sodium hyaluronate)
Text: (This may be in part because of the clearing of the hyaluronic acid through the lymphatic system from the site).

Row | SMILES | major toxic side effects (gastro-intestinal distress, neurological abnormalities, depression) (dissolved in n-methyl glucamine, applied topically with hyaluronic acid, even at elevated amounts) | relief of pain
1 | COc1ccc2c(c1)c(CC(=O)O)c(C)n2C(=O)c1ccc(Cl)cc1 [indomethacin] | no major toxic side effects occur | dramatic relief of pain immediately
2 | O=C(O)Cc1ccccc1Nc1c(Cl)cccc1Cl [diclofenac, Ortho-((2,6-dichlorophenyl)amino)phenylacetic acid] |  | dramatic relief of pain immediately

— patent publication US20110281947A1, “METHODS OF ADMINISTERING DICLOFENAC COMPOSITIONS FOR TREATING PHOTODAMAGED SKIN” (priority 2004, published 2011)
